Consider 2 molecules from patent publication US8334107B2, “Detection systems utilizing supported lipid bilayers” (priority 2005, dated 2012).

Test [1] deals with DMPG lipid bilayer on MS-PPE. Description: Disruption of DMPG lipid bilayer on MS-PPE detected by superquenching with AQS, flow cytometry. The class given is biochemical. The method, then: Lipid bilayers were disrupted by adding Triton X-100® detergent to the bead suspension to a final concentration of 0.25% (w/v).
Bead suspensions of 2.5×10^5 PPE-coated microspheres in 200 μL PBS were analyzed using a FACScan flow cytometer (Becton-Dickinson, Sunnyvale, Calif.) with excitation at 488 nm. Fluorescence signals were acquired on the FL-1 channel (525 nm) using log amplification and analyzed with the CellQuest software.
(§1) Bead suspensions of 2.5×10^5 DMPG-coated MS-PPE in 200 μL of PBS were analyzed using a FACScan flow cytometer (Becton-Dickinson, Sunnyvale, Calif.) with excitation at 488 nm. Fluorescence signals were acquired on FL-1 channel (525 nm) using log amplification and analyzed with the CellQuest software. Kinetic analysis of disruption of supported lipid bilayer by melittin was performed by acquiring real-time data with continuous mixing of samples (10^6 MS-PPE in 800 μl of PBS) using a magnetic stirrer. The raw data were analyzed using IDL Query software developed by Bruce Edwards (Cancer Center, University of New Mexico, Albuquerque, N. Mex.).
Because an anionic lipid was used to form a lipid bilayer around MS-PPE, it was expected that MLT will disrupt the DMPG lipid bilayer by such a detergent-like action. This was tested by adding 10 μM AQS to DMPG-coated MS-PPE followed by treatment with one of the following: Triton X-100® detergent, synthetic MLT (sMLT), or natural MLT (nMLT) and immediately reading the fluorescence by flow cytometry. […] These histograms resemble the ones reported previously for MS-PPE, without a lipid coating, in absence and in presence of AQS.
The kinetics of disruption of supported lipid bilayer by MLT were monitored by measuring real-time changes in fluorescence intensity by flow cytometry (FIG. 19). Suspensions of 10^6 DMPG-coated MS-PPE in 800 μL of PBS were treated with AQS at a final concentration of 10 μM, then with either sMLT, Triton X-100® detergent, or no treatment. […] Treatment with sMLT in the absence of AQS led to an increase in normalized fluorescence (FIG. 19, trace A). This can be attributed to disruption of the lipid bilayer by sMLT, and is consistent with a reversal of the slight quenching of fluorescence caused by the formation of a DMPG lipid bilayer over MS-PPE. Addition of AQS alone to DMPG-coated MS-PPE (FIG. 19, trace C) led to a 20% reduction in fluorescence as reported earlier. Addition of Triton X-100® detergent to DMPG-coated MS-PPE after the addition of AQS (first dip in trace E, FIG. 19) caused immediate decrease in fluorescence to ˜10% of its original value (second dip in trace E, FIG. 19). In contrast, addition of sMLT, after the addition of AQS, (FIG. 19, trace D) led to a gradual reduction of fluorescence intensity to ˜20% of the original value. Although MLT forms dimers at high concentrations (Dempsey, C. E. Biochim. Biophys. Acta 1990, 1031, 143-161), it is monomeric at the concentrations used in this study. On the other hand, Triton X-100® detergent forms micelles at the concentration used in this study.
For orientation: In flow cytometry, cells or beads pass a laser one at a time.

Test [2] deals with immobilized anionic DMPG membranes. The conditions noted are these: surface plasmon resonance; cited from earlier work.
The test system of another test is DMPG supported on MS-PPE. Description: Binding curves of MLT to DMPG supported on MS-PPE (superquenching flow cytometric assay). To be noted: flow cytometry, 10 μM AQS. Here is the method:
FIGS. 18A-B show binding curves for MLT-disruption of supported lipid bilayer by natural MLT (nMLT; FIG. 18A), and synthetic MLT (sMLT; FIG. 18B). Fluorescence intensity was normalized to that without MLT as determined by flow cytometry. The error bars represent the standard deviation (SD) of the means of normalized histograms obtained for 3 replicates.
as §1
From FIG. 18, the association constant (corresponding to the reciprocal of the point of half saturation) for nMLT and sMLT with DMPG were 5×10^6 M^−1 and 1.7×10^6 M^−1, respectively. […] Lower concentrations of nMLT, in comparison to sMLT, were required to disrupt the DMPG lipid bilayer. This might be attributed to the fact that nMLT contains some phospholipase A2 (PLA2) as a contaminant. […]

In test [3] the test system is 80:20 (molar ratio) DMPG and DMPC lipid bilayers on porous silica beads. Description: Suspension study: melittin-induced release of fluorescein dye from DMPG/DMPC coated porous beads. The class given is biochemical. The conditions noted are these: 220 μM melittin, 25° C., 80:20 DMPG:DMPC. The method, then: Experimental procedures were similar to the Triton X-100® detergent based analysis. For experiments with α-toxin, three different toxin concentrations: 15, 45 and 250 μg/mL were used at 37° C. and 25° C. Beads coated with EPC were used. In the experiments with melittin, 220 μM melittin was used with beads coated with either 100% EPC, 10:90 (molar ratio) mixture of DMPG and EPC or an 80:20 mixture of DMPG and DMPC. All melittin experiments were conducted at 25° C.
Previous suspension studies on disruption of lipid bilayers have been performed with small unilamellar vesicles where disruption of the lipid bilayer membranes was detected by monitoring the unquenching of a highly concentrated, encapsulated dye. In the present work disruption was monitored via release of fluorescein dye from porous beads, by measuring the increase in fluorescence intensity of the supernatant at 520 nm. Beads were first suspended in Tris buffer containing the disruptor. […] The measured portion was added back to the bead sample to permit continuous monitoring. […]
In view of the results shown in FIG. 5, the effects of melittin on other mixtures of lipids were examined. […] The increase in fluorescence intensity due to the membrane-melittin interaction, which results in the release of dye from porous beads was about 10 fold. […]

Another test deals with lipid bilayer. Nature of the test: Superquenching of fluorescent polymer coated lipid bilayer beads (general statement). The format is biochemical. To be noted: streptolysin O with cholesterol-containing lipids, mellitin with anionic lipids. The text has this: On the other hand, some test agents may only lead to gaps or smaller interruptions of the lipid bilayer, for example, as a result of insertion of a channel- or pore-forming proteins such as gramicidin and hemolysin. In either case, the result is either complete or partial superquenching of the fluorescent polymer. In general, non-porous beads are used for such quenching assays because the quenchable polymer is preferably coated onto the beads and is not impregnated into the beads.

Test [4] relates to DMPG bilayer on PPE-coated beads. Nature of the test: Microfluidic assay: detection of lipid bilayer disruption by fluorescence superquenching. The format is biochemical. To be noted: injected as 1:1 mixture with 120 μM AQS. Here is the method:
The preparation of microcolumns with PPE-coated, silica beads was similar to that of with fluorescein containing beads. A 10 μL aliquot of 120 μM AQS was injected to the column. After a certain period of time, a 10 μL aliquot of 1:1 mixture of 120 μM AQS and 220 μM melittin was injected. During this process, the PPE-coated silica bead segment was irradiated at 488 nm and its fluorescence emission intensity was measured at 520 nm every 10 minutes. This experiment was repeated, while injecting 220 μM melittin first, and then 120 μM AQS.
The feasibility of using superquenching as a method of detecting membrane-toxin interactions in microcolumns was also investigated. The fluorescence intensity of the cationic polyelectrolyte poly(p-phenylene-ethynylene) polymer (PPE) can be super-quenched by the quencher 9,10-anthraquinone-2,6-disulfonic acid (AQS). […] It has been observed in flow cytometric studies that formation of DMPG membranes on PPE-coated beads will quench the PPE fluorescence to some extent. The initial rise in fluorescence intensity was probably due to the unquenching of the PPE, due to the removal of lipid bilayers from PPE-coated beads through melittin interaction, whereas the decrease in fluorescence corresponded to superquenching of PPE by AQS after disruption of DMPG bilayer by melittin. […]

In test [5] the test system is 80:20 (molar ratio) DMPG and DMPC membrane on biotin containing porous beads. Nature of the test: Microfluidic study: detection of membrane interaction by release of reagent (biotin, ostrich quenching-unquenching). The format is biochemical. To be noted: 20 μL of melittin (220 μM), flow ~1.2 μL/min. Here is the method:
A microchannel was packed with a segment (about 1 mm) of streptavidin coated beads to which a non saturating amount of fluorescein biotin had been bound. This was followed by a segment (about 1 mm) of blank silica beads and a segment (about 2 mm) of lipid coated porous beads containing biotin. The blank silica beads were served as the spacer to prevent mixing of fluorescein biotin beads with biotin encapsulated beads. Biotin (25 mM) was encapsulated (according to the same procedure for fluorescein) with a 80:20 (molar ratio) mixture of DMPG and DMPC. A […] aliquot of either 10% Triton X-100® detergent or 220 μM melittin was injected to the column. The fluorescein biotin bead segment was irradiated at 488 nm and its fluorescence emission intensity was measured at 520 nm every 10 minutes.
In this study the membrane-toxin interaction was investigated using the microcolumn system by monitoring a bimolecular reaction on downstream beads. […] The unquenching of fluorescence was the signal for the disruption. […] Introduction of free biotin displaced the fluorescein from the cis binding pocket thus unquenching the fluorescence signal. […]
20 μL of melittin (220 μM) was injected to the bead packed microchannel at 18 min. […] The initial fluorescence intensity decrease is again due to photobleaching, resulting from exposure of the fluorescein-biotin segment to the Ar ion laser. […]

For the molecule “sMLT: synthetic melittin obtained from Sigma”, in test [1] (10 μM AQS, sMLT 3.8 μM, nMLT 1.6 μM), the “quenching of the MS-PPE after treatment” value is given as “comparable to that occurring on addition of Triton X-100”. The “fluorescence intensity, of the original value” in test [1] (real-time kinetics, added after 10 μM AQS (traces D, E)) was approximately 20%. In addition, in test [2], the association constant was 2e+06 M⁻¹. Moreover, the “association constant (reciprocal of the point of half saturation) with DMPG” value in the test on DMPG supported on MS-PPE is 1.7e+06 M⁻¹.
For `CC[C@H](C)[C@H](NC(=O)CN)C(=O)NCC(=O)N[C@@H](C)C(=O)N[C@H](C(=O)N[C@@H](CC(C)C)C(=O)N[C@@H](CCCCN)C(=O)N[C@H](C(=O)N[C@@H](CC(C)C)C(=O)N[C@H](C(=O)N[C@H](C(=O)NCC(=O)N[C@@H](CC(C)C)C(=O)N1CCC[C@H]1C(=O)N[C@@H](C)C(=O)N[C@@H](CC(C)C)C(=O)N[C@H](C(=O)N[C@@H](CO)C(=O)N[C@@H](Cc1c[nH]c2ccccc12)C(=O)N[C@H](C(=O)N[C@@H](CCCCN)C(=O)N[C@@H](CCCNC(=N)N)C(=O)N[C@@H](CCCCN)C(=O)N[C@@H](CCCNC(=N)N)C(=O)N[C@@H](CCC(N)=O)C(=O)N[C@@H](CCC(N)=O)C(N)=O)[C@@H](C)CC)[C@@H](C)CC)[C@@H](C)O)[C@@H](C)O)C(C)C)C(C)C` [melittin], the “increase in fluorescence intensity due to the membrane-melittin interaction” value in test [3] is recorded as “about 10 fold”. In the test with lipid bilayer, the “effect on the lipid bilayer” value was “total disruption of the bilayer”. In addition, in test [4], the “change in fluorescence intensity of bead segment” value is “slight rise in fluorescence intensity followed by a significant decrease”. Also, the “increase in fluorescence intensity of fluorescein-biotin segment” value in test [5] was “not as high as that observed for Triton X-100”.
